What was measured:
rice [1] = assay: Test B pre-/postemergence herbicide test; assay type: in vivo, Oryza sativa; settings: preemergence; for Rice plant response rating (0 to 100 scale): 125 g ai/ha; for Plant response rating, Rice: 500 g ai/ha
How it was run: (§1)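 Response was scored visually 13 to 15 days after treatment against untreated greenhouse controls, 0 meaning no effect and 100 complete control. Formulations (solvent mixture plus surfactant) went onto soil after planting, onto foliage of 1- to 4-leaf plants, and onto 2-leaf plants in a flooded paddy set including rice and barnyardgrass.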

lambsquarters = assay: Test B pre-/postemergence herbicide test; assay type: in vivo, Chenopodium album; settings: for Lambsquarters plant response rating (0 to 100 scale) / Plant response rating, Lambsquarters: preemergence; for Lambsquarters plant response rating: postemergence, scale 0 (no effect) to 100 (complete control)
How it was run: as §1

morningglory = assay: Test B pre-/postemergence herbicide test; assay type: in vivo, Ipomoea coccinea; settings: for Morningglory plant response rating (0 to 100 scale) / Plant response rating, Morningglory: preemergence; for Morningglory plant response rating: postemergence, scale 0 (no effect) to 100 (complete control)
How it was run: (§2)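 Seeds were planted and treated preemergence with compounds formulated in a non-phytotoxic solvent mixture containing surfactant, while plants at the 1- to 4-leaf stage (2 to 18 cm) received postemergence sprays. Flooded paddy plants were grown to the 2-leaf stage. After 13 to 15 days in a greenhouse, injury was visually rated 0–100 against untreated controls.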

barnyardgrass [2] = assay: Test B flooded paddy test; assay type: in vivo, Echinochloa crus-galli; settings: 1000 g ai/ha, scale 0 to 100 (0 no effect, 100 complete control)
How it was run: (§3)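 Postemergence plants were sprayed with formulated test chemicals at 2 to 18 cm height (1- to 4-leaf stage); paddy species were grown to the 2-leaf stage. After 13 to 15 days in a greenhouse, injury was rated visually against untreated controls on a 0–100 scale (0 = no effect, 100 = complete control).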

wheat = assay: Test B postemergence herbicide test; assay type: in vivo, Triticum aestivum; parameters: key to Wheat plant response rating: 0 = no effect, 100 = complete control; settings: postemergence, visual rating, scale 0 (no effect) to 100 (complete control)
How it was run: (§4)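 Scale 0–100: zero equals no visible effect, 100 complete control, judged by eye relative to controls. Timing: 13 to 15 days in greenhouse post-treatment. Growth stage at spraying: two leaves (paddy) or one to four leaves, 2–18 cm (postemergence).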

blackgrass = assay: Test B postemergence herbicide test; assay type: in vivo, Alopecurus myosuroides; settings: postemergence, visual rating, scale 0 (no effect) to 100 (complete control)
How it was run: as §3

large crabgrass = assay: Test B pre-/postemergence herbicide test; assay type: in vivo, Digitaria sanguinalis; settings: for Crabgrass, Large plant response rating (0 to 100 scale) / Plant response rating, Crabgrass, Large: preemergence; for Crabgrass, Large plant response rating: postemergence, scale 0 (no effect) to 100 (complete control)
How it was run: as §1

velvetleaf = assay: Test B pre-/postemergence herbicide test; assay type: in vivo, Abutilon theophrasti; settings: for Velvetleaf plant response rating (0 to 100 scale) / Plant response rating, Velvetleaf: preemergence; for Velvetleaf plant response rating: postemergence, scale 0 (no effect) to 100 (complete control)
How it was run: as §1

wild oat = assay: Test B postemergence herbicide test; assay type: in vivo, Avena fatua; settings: postemergence, visual rating, scale 0 (no effect) to 100 (complete control)
How it was run: as §4

ducksalad = assay: Test B flooded paddy test; assay type: in vivo, Heteranthera limosa; settings: 1000 g ai/ha, scale 0 to 100 (0 no effect, 100 complete control)
How it was run: as §3

barnyardgrass [3] = assay: Test B pre-/postemergence herbicide test; assay type: in vivo, Echinochloa crus-galli; settings: for Barnyardgrass plant response rating (0 to 100 scale) / Plant response rating, Barnyardgrass: preemergence; for Barnyardgrass plant response rating: postemergence, scale 0 (no effect) to 100 (complete control)
How it was run: as §2

corn = assay: Test B pre-/postemergence herbicide test; assay type: in vivo, Zea mays; settings: for Corn plant response rating (0 to 100 scale) / Plant response rating, Corn: preemergence; for Corn plant response rating: postemergence, scale 0 (no effect) to 100 (complete control)
How it was run: as §1

pigweed = assay: Test B pre-/postemergence herbicide test; assay type: in vivo, Amaranthus retroflexus; settings: for Pigweed plant response rating (0 to 100 scale) / Plant response rating, Pigweed: preemergence; for Pigweed plant response rating: postemergence, scale 0 (no effect) to 100 (complete control)
How it was run: as §1

[4] = tested on: small flower umbrella sedge; assay: Test B flooded paddy test; assay type: in vivo, Cyperus difformis; settings: 1000 g ai/ha, scale 0 to 100 (0 no effect, 100 complete control)
How it was run: as §3

Surinam grass = assay: Test B pre-/postemergence herbicide test; assay type: in vivo, Urochloa decumbens; settings: for Surinam Grass plant response rating (0 to 100 scale) / Plant response rating, Surinam Grass: preemergence; for Surinam Grass plant response rating: postemergence, scale 0 (no effect) to 100 (complete control)
How it was run: as §1

giant foxtail = assay: Test B pre-/postemergence herbicide test; assay type: in vivo, Setaria faberi; settings: for Foxtail, Giant plant response rating (0 to 100 scale) / Plant response rating, Foxtail, Giant: preemergence; for Foxtail, Giant plant response rating: postemergence, scale 0 (no effect) to 100 (complete control)
How it was run: as §1

cocklebur = assay: Test B pre-/postemergence herbicide test; assay type: in vivo, Xanthium strumarium; settings: for Cocklebur plant response rating (0 to 100 scale) / Plant response rating, Cocklebur: preemergence; for Cocklebur plant response rating: postemergence, scale 0 (no effect) to 100 (complete control)
How it was run: as §2

rice [5] = assay: Test B flooded paddy test; assay type: in vivo, Oryza sativa; settings: 1000 g ai/ha, scale 0 to 100 (0 no effect, 100 complete control)
How it was run: as §3

[6] = 0 = no effect, 100 = complete control
[7] = 125 g ai/ha, 0 = no effect, 100 = complete control
[8] = 500 g ai/ha, visual rating, 0 = no effect, 100 = complete control
[9] = 500 g ai/ha, visual rating 0-100, 0 no effect, 100 complete control

## CCc1nn(C(C)(C)C)cc1C(=O)Nc1ccc(F)c(C(=O)N(C)C)c1 [Compound 239]
Rice [1]; [6]
  Rice plant response rating (0 to 100 scale): 0
Rice [1]; visual rating, 0 = no effect, 100 = complete control
  Plant response rating, Rice: 0
lambsquarters; [7]
  Lambsquarters plant response rating (0 to 100 scale): 20
lambsquarters; [8]
  Plant response rating, Lambsquarters: 70
lambsquarters; 125 g ai/ha, visual rating
  Lambsquarters plant response rating: 0
lambsquarters; 500 g ai/ha, visual rating
  Lambsquarters plant response rating: 30
morningglory; [7]
  Morningglory plant response rating (0 to 100 scale): 0
morningglory; [8]
  Plant response rating, Morningglory: 0
morningglory; 125 g ai/ha, visual rating
  Morningglory plant response rating: 0
morningglory; 500 g ai/ha, visual rating
  Morningglory plant response rating: 10
Barnyardgrass [2]
  Barnyardgrass plant response rating: 0
wheat; 125 g ai/ha
  Wheat plant response rating: 0
wheat; 500 g ai/ha
  Wheat plant response rating: 0
blackgrass; 125 g ai/ha
  Blackgrass plant response rating: 0
blackgrass; 500 g ai/ha
  Blackgrass plant response rating: 0
Large crabgrass; [7]
  Crabgrass, Large plant response rating (0 to 100 scale): 0
Large crabgrass; [8]
  Plant response rating, Crabgrass, Large: 100
Large crabgrass; 125 g ai/ha, visual rating
  Crabgrass, Large plant response rating: 0
Large crabgrass; 500 g ai/ha, visual rating
  Crabgrass, Large plant response rating: 20
velvetleaf; [7]
  Velvetleaf plant response rating (0 to 100 scale): 0
velvetleaf; [8]
  Plant response rating, Velvetleaf: 0
velvetleaf; 125 g ai/ha, visual rating
  Velvetleaf plant response rating: 0
velvetleaf; 500 g ai/ha, visual rating
  Velvetleaf plant response rating: 10
Wild oat; 125 g ai/ha
  Oat, Wild plant response rating: 0
Wild oat; 500 g ai/ha
  Oat, Wild plant response rating: 0
ducksalad
  Ducksalad plant response rating: 0
Barnyardgrass [3]; [7]
  Barnyardgrass plant response rating (0 to 100 scale): 0
Barnyardgrass [3]; [8]
  Plant response rating, Barnyardgrass: 60
Barnyardgrass [3]; 125 g ai/ha, visual rating
  Barnyardgrass plant response rating: 0
Barnyardgrass [3]; 500 g ai/ha, visual rating
  Barnyardgrass plant response rating: 0
corn; [7]
  Corn plant response rating (0 to 100 scale): 0
corn; [8]
  Plant response rating, Corn: 0
corn; 125 g ai/ha, visual rating
  Corn plant response rating: 0
corn; 500 g ai/ha, visual rating
  Corn plant response rating: 20
pigweed; [7]
  Pigweed plant response rating (0 to 100 scale): 0
pigweed; [8]
  Plant response rating, Pigweed: 70
pigweed; 125 g ai/ha, visual rating
  Pigweed plant response rating: 20
pigweed; 500 g ai/ha, visual rating
  Pigweed plant response rating: 50
[4]
  Sedge, Umbrella plant response rating: 70
Surinam grass; [7]
  Surinam Grass plant response rating (0 to 100 scale): 0
Surinam grass; [8]
  Plant response rating, Surinam Grass: 0
Surinam grass; 125 g ai/ha, visual rating
  Surinam Grass plant response rating: 0
Surinam grass; 500 g ai/ha, visual rating
  Surinam Grass plant response rating: 30
Giant foxtail; [7]
  Foxtail, Giant plant response rating (0 to 100 scale): 0
Giant foxtail; [8]
  Plant response rating, Foxtail, Giant: 0
Giant foxtail; 125 g ai/ha, visual rating
  Foxtail, Giant plant response rating: 0
Giant foxtail; 500 g ai/ha, visual rating
  Foxtail, Giant plant response rating: 0
cocklebur; [7]
  Cocklebur plant response rating (0 to 100 scale): 0
cocklebur; [8]
  Plant response rating, Cocklebur: 0
cocklebur; 125 g ai/ha, visual rating
  Cocklebur plant response rating: 0
cocklebur; 500 g ai/ha, visual rating
  Cocklebur plant response rating: 20
Rice [5]
  Rice plant response rating: 30

## CCCc1nn(C(C)(C)C)cc1C(=O)Nc1cccc(C(=O)N(CC)CC)c1 [Compound 185]
Rice [1]; [6]
  Rice plant response rating (0 to 100 scale): 0
Rice [1]; visual rating 0-100, 0 no effect, 100 complete control
  Plant response rating, Rice: 0
lambsquarters; [7]
  Lambsquarters plant response rating (0 to 100 scale): 20
lambsquarters; [9]
  Plant response rating, Lambsquarters: 80
lambsquarters; 125 g ai/ha, visual rating
  Lambsquarters plant response rating: 60
lambsquarters; 500 g ai/ha, visual rating
  Lambsquarters plant response rating: 70
morningglory; [7]
  Morningglory plant response rating (0 to 100 scale): 0
morningglory; [9]
  Plant response rating, Morningglory: 50
morningglory; 125 g ai/ha, visual rating
  Morningglory plant response rating: 40
morningglory; 500 g ai/ha, visual rating
  Morningglory plant response rating: 70
Barnyardgrass [2]; visual rating, 13 to 15 days
  Barnyardgrass plant response rating: 0
wheat; 125 g ai/ha
  Wheat plant response rating: 0
wheat; 500 g ai/ha
  Wheat plant response rating: 10
blackgrass; 125 g ai/ha
  Blackgrass plant response rating: 0
blackgrass; 500 g ai/ha
  Blackgrass plant response rating: 0
Large crabgrass; [7]
  Crabgrass, Large plant response rating (0 to 100 scale): 0
Large crabgrass; [9]
  Plant response rating, Crabgrass, Large: 50
Large crabgrass; 125 g ai/ha, visual rating
  Crabgrass, Large plant response rating: 20
Large crabgrass; 500 g ai/ha, visual rating
  Crabgrass, Large plant response rating: 40
velvetleaf; [7]
  Velvetleaf plant response rating (0 to 100 scale): 10
velvetleaf; [9]
  Plant response rating, Velvetleaf: 50
velvetleaf; 125 g ai/ha, visual rating
  Velvetleaf plant response rating: 30
velvetleaf; 500 g ai/ha, visual rating
  Velvetleaf plant response rating: 50
Wild oat; 125 g ai/ha
  Oat, Wild plant response rating: 10
Wild oat; 500 g ai/ha
  Oat, Wild plant response rating: 30
ducksalad; visual rating, 13 to 15 days
  Ducksalad plant response rating: 0
Barnyardgrass [3]; [7]
  Barnyardgrass plant response rating (0 to 100 scale): 0
Barnyardgrass [3]; [9]
  Plant response rating, Barnyardgrass: 70
Barnyardgrass [3]; 125 g ai/ha, visual rating
  Barnyardgrass plant response rating: 30
Barnyardgrass [3]; 500 g ai/ha, visual rating
  Barnyardgrass plant response rating: 50
corn; [7]
  Corn plant response rating (0 to 100 scale): 0
corn; [9]
  Plant response rating, Corn: 0
corn; 125 g ai/ha, visual rating
  Corn plant response rating: 20
corn; 500 g ai/ha, visual rating
  Corn plant response rating: 30
pigweed; [7]
  Pigweed plant response rating (0 to 100 scale): 0
pigweed; [9]
  Plant response rating, Pigweed: 100
pigweed; 125 g ai/ha, visual rating
  Pigweed plant response rating: 60
pigweed; 500 g ai/ha, visual rating
  Pigweed plant response rating: 80
[4]; visual rating, 13 to 15 days
  Sedge, Umbrella plant response rating: 60
Surinam grass; [7]
  Surinam Grass plant response rating (0 to 100 scale): 10
Surinam grass; [9]
  Plant response rating, Surinam Grass: 20
Surinam grass; 125 g ai/ha, visual rating
  Surinam Grass plant response rating: 20
Surinam grass; 500 g ai/ha, visual rating
  Surinam Grass plant response rating: 30
Giant foxtail; [7]
  Foxtail, Giant plant response rating (0 to 100 scale): 0
Giant foxtail; [9]
  Plant response rating, Foxtail, Giant: 70
Giant foxtail; 125 g ai/ha, visual rating
  Foxtail, Giant plant response rating: 20
Giant foxtail; 500 g ai/ha, visual rating
  Foxtail, Giant plant response rating: 30
cocklebur; [7]
  Cocklebur plant response rating (0 to 100 scale): 0
cocklebur; [9]
  Plant response rating, Cocklebur: 0
cocklebur; 125 g ai/ha, visual rating
  Cocklebur plant response rating: 20
cocklebur; 500 g ai/ha, visual rating
  Cocklebur plant response rating: 50
Rice [5]; visual rating, 13 to 15 days
  Rice plant response rating: 0

Reference: US20060069132A1, “Azolecarboxamide herbicides” (priority 2004, published 2006)
